Measured values: article PMC11355573, “A New Renieramycin T Right-Half Analog as a Small Molecule Degrader of STAT3” (Marine Drugs, 2024)

Key:
[1] = tested on: EMT markers (ZO1, ZEB1, Slug, Snail, N-cadherin, Vimentin) in H460 cells; assay: Immunofluorescence staining of EMT markers; assay type: cell-based, human
Source text: (§1) EMT is a biological process that is associated with cancer progression and the spread of cancer cells to other parts of the body. This mechanism facilitates the motility of cancer cells, enhances anoikis resistance, and contributes to poor prognosis due to its high metastatic potential. Given the critical role of EMT in the metastasis processes, we firstly investigated EMT markers. Therefore, to validate that DH_31 inhibits metastasis, H460 cells were selected to elucidate the mechanism because of their enhanced migration and invasion behavior [36]. H460 cells were exposed to the non-toxic concentration range of 0–2.5 µM of DH_31 for 24 h. Subsequently, the evaluation of EMT expression levels was carried out through the application of immunofluorescence assay and Western blotting. We further investigated key hallmarks of EMT, specifically the reduction in the expression levels of epithelial marker (ZO1) and the increase in the expression levels of mesenchymal markers (Slug, Snail, ZEB1, N-cadherin, and Vimentin). […] The expressions of Snail, N-cadherin, and Vimentin were reduced in a concentration-dependent manner. […] Furthermore, the results from the Western blot analysis confirmed the findings from immunofluorescence staining (Figure 3C). […] The protein alterations in response to DH_31 were clarified.
Immunofluorescence staining and confocal microscopy were conducted to visualize the subcellular localization and spatial distribution of specific proteins. H460 cells (1.0 × 10^4 cells per well) were seeded in 96-well plates. Following overnight incubation, the cells were treated with different concentrations of DH_31 (0–2.5 μM) for 24 h at 37 °C. After treatment, the cells were permeabilized with 0.5% Triton-X in PBS for 5 min, followed by the blocking of non-specific proteins with 10% FBS in 0.1% Triton-X PBS for 1 h at room temperature. Subsequently, the cells were exposed to primary antibodies (STAT3, Slug, Snail, Vimentin, N-cadherin, ZO1, and ZEB1) and incubated at 4 °C overnight. The cells were then incubated with Alexa Fluor 488- or 594-conjugated secondary antibodies and Hoechst 33342 for 1 h at room temperature. After washing with PBS, the cells were covered with 50% glycerol. The images were captured by confocal microscopy (Zeiss, Jena, Germany). The fluorescence intensity was measured using ImageJ™ software (Image J 1.52a, Rasband, W., National Institutes of Health, Bethesda, MD, USA).

[2] = tested on: EMT markers (ZO1, Slug, Snail, N-cadherin, Vimentin) in H460 cells; assay: Western blot of EMT markers; assay type: cell-based, human
Source text: as §1
(§2) Western blot analysis was performed to detect and quantify specific proteins in a sample. H460 cells (4.0 × 10^5 cells per well) were seeded in 6 well plates. Following overnight incubation, the cells were treated with different concentrations of DH_31 (0–2.5 μM) for 24 h at 37 °C. After treatment, the cell lysates were isolated using a 1 × RIPA buffer containing a protease inhibitor cocktail for 45 min at 4 °C. The protein content was determined using the BCA protein assay kit. For the Western blot assay, an equal amount of the denatured proteins from cell lysates was separated by electrophoresis on 10 or 12% SDS-PAGE and transferred to 0.2 µm polyvinylidene difluoride (PVDF) membranes (Bio-Rad Laboratories, Hercules, CA, USA). After the membranes were blocked with 5% skim milk, they were then incubated overnight with specific primary antibodies at 4 °C. Subsequently, the membranes were incubated with HRP-conjugated secondary antibodies for 1 h at room temperature. Protein bands were visualized using SuperSignal^TM West Pico PLUS Chemiluminescent Substrate. The protein intensity was analyzed using ImageJ™ software (Image J 1.52a, Rasband, W., National Institutes of Health, Bethesda, MD, USA).

[3] = target: T1, STAT3 (Homo sapiens, UniProt P40763); assay: STAT3 Western blot; assay type: cell-based; conditions: H460, 1 μM and 2.5 μM, 24 h (p < 0.05)
T1 construct: endogenous in cells; host or cells: NCI-H460 (ATCC HTB-177)
Experimental: These findings imply that DH_31 exerts its anticancer effects by modulating the expression and/or accumulation of STAT3.
as §2

T1 sequence (P40763 whole entry): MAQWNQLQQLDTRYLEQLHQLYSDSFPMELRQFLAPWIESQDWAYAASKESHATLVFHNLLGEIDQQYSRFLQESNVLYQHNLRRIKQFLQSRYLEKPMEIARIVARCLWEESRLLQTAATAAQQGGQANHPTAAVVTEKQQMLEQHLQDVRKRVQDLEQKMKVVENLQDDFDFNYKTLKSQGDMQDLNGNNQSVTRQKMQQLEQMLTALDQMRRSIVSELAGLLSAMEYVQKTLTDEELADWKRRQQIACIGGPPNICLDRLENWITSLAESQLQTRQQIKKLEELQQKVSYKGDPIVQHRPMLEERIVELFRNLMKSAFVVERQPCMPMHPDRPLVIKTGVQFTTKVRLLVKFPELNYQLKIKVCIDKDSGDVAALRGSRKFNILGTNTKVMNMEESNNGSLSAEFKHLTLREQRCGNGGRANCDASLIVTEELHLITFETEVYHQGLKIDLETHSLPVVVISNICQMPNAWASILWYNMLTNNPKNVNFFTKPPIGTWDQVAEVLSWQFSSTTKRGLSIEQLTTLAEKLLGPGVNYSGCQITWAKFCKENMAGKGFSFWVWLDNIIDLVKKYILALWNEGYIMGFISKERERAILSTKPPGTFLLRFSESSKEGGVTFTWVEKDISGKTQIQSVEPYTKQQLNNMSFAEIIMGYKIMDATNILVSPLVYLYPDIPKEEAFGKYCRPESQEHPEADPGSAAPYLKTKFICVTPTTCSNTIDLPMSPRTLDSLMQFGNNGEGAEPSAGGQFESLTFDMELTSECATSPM

COc1c(C)cc2c(c1O)[C@@H]1CN(Cc3ccc4ccccc4c3)[C@@H](C#N)[C@H](C2)N1C [DH_31, (1R,4R,5S)-10-hydroxy-9-methoxy-8,11-dimethyl-3-(naphthalen-2-ylmethyl)-1,2,3,4,5,6-hexahydro-1,5-epiminobenzo[d]azocine-4-carbonitrile]
ZO1 level (immunofluorescence) ([1]; H460, 0–2.5 µM, 24 h): slightly increased
Vimentin level (immunofluorescence) ([1]; H460, 1 μM (p < 0.01) and 2.5 μM (p < 0.001), 24 h): significant reduction
N-cadherin level (immunofluorescence) ([1]; H460, 1 μM (p < 0.05) and 2.5 μM (p < 0.001), 24 h): significant reduction
Snail level (immunofluorescence) ([1]; H460, 1 μM and 2.5 μM, 24 h (p < 0.05)): significant reduction
Slug protein level (immunofluorescence) ([1]; H460, 2.5 µM, 24 h (p < 0.05)): significant decrease
ZEB1 protein level (immunofluorescence) ([1]; H460, 2.5 µM, 24 h (p < 0.05)): significant decrease
Snail expression (Western blot) ([2]; H460, 1 µM (p < 0.05) and 2.5 µM (p < 0.01), 24 h): reduced
N-cadherin expression (Western blot) ([2]; H460, 2.5 µM, 24 h (p < 0.05)): reductions
Slug expression (Western blot) ([2]; H460, 2.5 µM, 24 h (p < 0.05)): reductions
Vimentin expression (Western blot) ([2]; H460, 2.5 µM, 24 h (p < 0.05)): reductions
STAT3 protein level (Western blot) [3]: significant decrease
